ChEMBL document CHEMBL5634156, “A potent and selective cis-amide inhibitor of ryanodine receptor 2 as a candidate for cardiac arrhythmia treatment” (Eur J Med Chem, 2023)
The source made the active and inactive calls. The rule behind the calls is not given here.

Key:
Format in all cases: cell-based
Ryanodine receptor 2 = Ryanodine receptor 2 (Mus musculus, UniProt E9Q401); assay: Inhibition of Full length wild type mouse RyR2 expressed in Flp-In-T-REx-293 cells assessed as increase in Ca2+ release endoplasmic reticulum by flex-station 3 fluorometer analysis
Sequence of Ryanodine receptor 2 (E9Q401 whole entry): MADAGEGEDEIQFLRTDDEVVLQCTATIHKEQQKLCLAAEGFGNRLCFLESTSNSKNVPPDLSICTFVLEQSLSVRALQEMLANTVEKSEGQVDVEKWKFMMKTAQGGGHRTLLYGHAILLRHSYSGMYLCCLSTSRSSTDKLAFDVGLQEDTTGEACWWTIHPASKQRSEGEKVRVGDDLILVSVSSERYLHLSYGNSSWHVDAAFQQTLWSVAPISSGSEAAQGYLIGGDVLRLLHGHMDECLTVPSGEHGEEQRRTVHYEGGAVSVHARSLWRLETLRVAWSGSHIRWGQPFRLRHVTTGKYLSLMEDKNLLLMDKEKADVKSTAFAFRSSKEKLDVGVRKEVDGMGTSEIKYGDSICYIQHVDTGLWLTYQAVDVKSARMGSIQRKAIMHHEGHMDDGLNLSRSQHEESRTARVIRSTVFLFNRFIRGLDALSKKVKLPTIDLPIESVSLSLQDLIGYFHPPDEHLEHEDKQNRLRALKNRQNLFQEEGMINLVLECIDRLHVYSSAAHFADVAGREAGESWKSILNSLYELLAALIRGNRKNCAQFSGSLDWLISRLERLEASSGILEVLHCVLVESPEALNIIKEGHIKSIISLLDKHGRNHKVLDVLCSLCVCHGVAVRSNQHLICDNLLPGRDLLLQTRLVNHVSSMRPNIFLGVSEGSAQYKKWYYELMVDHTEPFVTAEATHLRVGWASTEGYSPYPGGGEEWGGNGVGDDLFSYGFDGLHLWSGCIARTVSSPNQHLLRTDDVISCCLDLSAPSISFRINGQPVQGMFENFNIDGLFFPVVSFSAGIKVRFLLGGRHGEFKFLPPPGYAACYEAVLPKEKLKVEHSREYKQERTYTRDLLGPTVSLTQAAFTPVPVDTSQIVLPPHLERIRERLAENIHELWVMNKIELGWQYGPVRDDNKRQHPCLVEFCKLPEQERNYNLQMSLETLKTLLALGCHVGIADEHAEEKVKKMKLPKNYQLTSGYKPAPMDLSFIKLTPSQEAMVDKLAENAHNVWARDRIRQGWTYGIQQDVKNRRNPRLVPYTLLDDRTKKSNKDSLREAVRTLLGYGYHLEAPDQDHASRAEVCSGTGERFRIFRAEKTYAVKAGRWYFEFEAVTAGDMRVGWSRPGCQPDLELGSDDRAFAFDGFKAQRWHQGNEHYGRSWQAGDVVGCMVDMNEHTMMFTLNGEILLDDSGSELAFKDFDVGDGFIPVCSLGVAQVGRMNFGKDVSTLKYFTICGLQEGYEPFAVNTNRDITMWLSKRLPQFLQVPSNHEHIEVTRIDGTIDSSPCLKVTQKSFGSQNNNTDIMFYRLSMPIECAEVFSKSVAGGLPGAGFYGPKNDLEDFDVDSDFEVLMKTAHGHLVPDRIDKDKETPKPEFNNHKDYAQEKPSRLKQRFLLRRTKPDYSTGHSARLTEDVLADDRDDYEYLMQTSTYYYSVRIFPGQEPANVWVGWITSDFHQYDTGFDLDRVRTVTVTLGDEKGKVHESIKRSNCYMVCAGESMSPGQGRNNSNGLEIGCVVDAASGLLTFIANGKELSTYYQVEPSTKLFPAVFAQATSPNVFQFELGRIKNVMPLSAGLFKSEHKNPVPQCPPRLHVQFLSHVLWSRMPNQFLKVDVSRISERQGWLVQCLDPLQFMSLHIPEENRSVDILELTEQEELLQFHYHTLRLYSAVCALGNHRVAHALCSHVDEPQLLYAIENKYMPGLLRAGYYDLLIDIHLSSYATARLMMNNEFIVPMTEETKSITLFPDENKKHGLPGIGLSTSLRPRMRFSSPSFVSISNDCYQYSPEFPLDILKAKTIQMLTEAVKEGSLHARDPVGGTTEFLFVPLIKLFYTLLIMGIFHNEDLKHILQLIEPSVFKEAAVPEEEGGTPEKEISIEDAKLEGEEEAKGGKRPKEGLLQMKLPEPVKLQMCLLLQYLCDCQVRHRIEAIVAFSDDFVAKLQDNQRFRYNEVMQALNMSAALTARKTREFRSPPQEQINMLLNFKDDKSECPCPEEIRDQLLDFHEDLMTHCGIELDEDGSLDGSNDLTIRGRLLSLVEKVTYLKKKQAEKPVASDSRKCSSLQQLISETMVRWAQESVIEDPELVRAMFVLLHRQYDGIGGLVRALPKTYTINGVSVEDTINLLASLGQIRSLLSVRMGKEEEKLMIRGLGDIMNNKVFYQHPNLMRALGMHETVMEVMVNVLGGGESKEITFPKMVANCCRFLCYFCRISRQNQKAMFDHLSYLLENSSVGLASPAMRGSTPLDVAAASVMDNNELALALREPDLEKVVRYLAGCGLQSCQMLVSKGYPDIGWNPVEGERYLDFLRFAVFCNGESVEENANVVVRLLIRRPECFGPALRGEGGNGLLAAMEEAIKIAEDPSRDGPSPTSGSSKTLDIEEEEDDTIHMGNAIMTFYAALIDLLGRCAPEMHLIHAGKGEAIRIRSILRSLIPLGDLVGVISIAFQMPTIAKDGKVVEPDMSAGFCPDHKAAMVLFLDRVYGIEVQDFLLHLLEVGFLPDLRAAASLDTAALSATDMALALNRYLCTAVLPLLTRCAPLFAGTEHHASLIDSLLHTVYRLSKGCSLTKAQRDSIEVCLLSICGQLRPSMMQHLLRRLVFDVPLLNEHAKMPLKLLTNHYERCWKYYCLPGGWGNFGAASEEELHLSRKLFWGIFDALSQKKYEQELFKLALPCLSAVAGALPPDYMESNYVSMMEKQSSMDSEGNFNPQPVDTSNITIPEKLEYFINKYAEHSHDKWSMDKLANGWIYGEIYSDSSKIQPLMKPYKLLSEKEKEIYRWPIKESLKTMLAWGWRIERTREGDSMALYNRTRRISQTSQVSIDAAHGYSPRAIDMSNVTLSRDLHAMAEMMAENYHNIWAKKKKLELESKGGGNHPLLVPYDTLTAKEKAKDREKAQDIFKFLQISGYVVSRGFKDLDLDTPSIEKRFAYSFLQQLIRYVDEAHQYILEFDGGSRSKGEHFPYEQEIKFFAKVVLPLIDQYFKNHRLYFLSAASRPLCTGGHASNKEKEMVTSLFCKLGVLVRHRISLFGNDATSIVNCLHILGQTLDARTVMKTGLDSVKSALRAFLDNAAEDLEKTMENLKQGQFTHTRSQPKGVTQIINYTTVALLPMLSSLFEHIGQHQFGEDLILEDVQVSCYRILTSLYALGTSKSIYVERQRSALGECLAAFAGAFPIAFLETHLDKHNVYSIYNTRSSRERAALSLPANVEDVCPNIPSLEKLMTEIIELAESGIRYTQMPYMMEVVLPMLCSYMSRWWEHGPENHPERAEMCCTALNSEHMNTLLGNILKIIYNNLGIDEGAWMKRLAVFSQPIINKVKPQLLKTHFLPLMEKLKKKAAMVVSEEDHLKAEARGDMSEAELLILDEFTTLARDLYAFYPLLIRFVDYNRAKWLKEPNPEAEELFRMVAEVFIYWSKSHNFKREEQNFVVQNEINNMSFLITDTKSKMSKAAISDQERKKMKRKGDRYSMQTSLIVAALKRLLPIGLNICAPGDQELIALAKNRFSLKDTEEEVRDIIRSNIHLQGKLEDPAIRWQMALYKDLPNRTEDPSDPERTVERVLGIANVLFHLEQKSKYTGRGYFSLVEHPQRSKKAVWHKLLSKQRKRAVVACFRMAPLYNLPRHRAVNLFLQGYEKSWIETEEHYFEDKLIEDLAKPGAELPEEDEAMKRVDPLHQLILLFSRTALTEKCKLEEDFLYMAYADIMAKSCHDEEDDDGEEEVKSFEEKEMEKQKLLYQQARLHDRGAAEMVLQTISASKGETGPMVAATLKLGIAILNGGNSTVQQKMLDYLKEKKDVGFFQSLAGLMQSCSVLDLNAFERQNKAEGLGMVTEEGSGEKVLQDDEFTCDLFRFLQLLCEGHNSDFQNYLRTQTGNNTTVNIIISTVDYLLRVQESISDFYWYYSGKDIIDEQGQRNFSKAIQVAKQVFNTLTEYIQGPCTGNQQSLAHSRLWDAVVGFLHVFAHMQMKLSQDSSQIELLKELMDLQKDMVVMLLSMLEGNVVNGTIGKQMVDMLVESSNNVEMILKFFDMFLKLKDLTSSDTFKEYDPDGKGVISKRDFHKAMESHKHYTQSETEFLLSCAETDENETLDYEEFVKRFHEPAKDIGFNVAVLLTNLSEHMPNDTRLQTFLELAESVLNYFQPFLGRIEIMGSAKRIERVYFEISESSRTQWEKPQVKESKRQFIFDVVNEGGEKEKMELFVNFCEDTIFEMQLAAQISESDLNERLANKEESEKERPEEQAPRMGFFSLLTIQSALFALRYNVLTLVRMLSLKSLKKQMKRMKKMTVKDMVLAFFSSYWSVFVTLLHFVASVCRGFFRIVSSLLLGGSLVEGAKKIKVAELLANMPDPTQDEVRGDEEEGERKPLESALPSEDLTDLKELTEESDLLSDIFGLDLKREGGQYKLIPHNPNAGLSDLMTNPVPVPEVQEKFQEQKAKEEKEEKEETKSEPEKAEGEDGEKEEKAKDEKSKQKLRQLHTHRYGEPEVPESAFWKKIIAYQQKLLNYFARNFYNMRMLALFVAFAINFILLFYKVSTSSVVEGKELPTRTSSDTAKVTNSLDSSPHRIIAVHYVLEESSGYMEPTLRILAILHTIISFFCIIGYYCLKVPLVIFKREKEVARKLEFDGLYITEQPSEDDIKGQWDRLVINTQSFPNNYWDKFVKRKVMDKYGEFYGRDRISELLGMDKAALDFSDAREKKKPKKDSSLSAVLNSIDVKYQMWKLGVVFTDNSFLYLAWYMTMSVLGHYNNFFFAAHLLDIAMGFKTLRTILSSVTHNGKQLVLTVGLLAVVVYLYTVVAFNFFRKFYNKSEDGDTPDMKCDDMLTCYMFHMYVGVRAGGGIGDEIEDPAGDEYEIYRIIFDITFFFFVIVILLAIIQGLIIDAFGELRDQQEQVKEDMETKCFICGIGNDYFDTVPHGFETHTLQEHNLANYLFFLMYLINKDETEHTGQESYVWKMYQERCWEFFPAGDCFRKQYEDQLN

HEK293 [1] = assay: Inhibition of RyR3 R2163C mutant (unknown origin) expressed in HEK293 cells assessed as caffeine-induced increase in Ca2+ release at 100 uM; details: Homo sapiens
[2] = biological target: Ryanodine receptor 1 (Homo sapiens) (UniProt P21817); assay: Inhibition of RyR1 (unknown origin) expressed in HEK293 cells assessed as caffeine-induced increase in Ca2+ release at 100 uM by flex-station 3 fluorometer analysis
Cardiomyocyte [3] = assay: Inhibition of RyR2 R420W mutant in mouse Cardiomyocyte assessed as 0.5 Hz field-pulse stimulated suppression of abnormal Ca2+ waves incubated for 3 mins by ROI analysis
[4] = biological target: Ryanodine receptor 2 (Mus musculus) (UniProt E9Q401); assay: Inhibition of Full length wild type mouse RyR2 expressed in Flp-In-T-REx-293 cells assessed as increase in Ca2+ release in endoplasmic reticulum at 30 uM by flex-station 3 fluorometer analysis
Sequence of Ryanodine receptor 2 (Mus musculus) (E9Q401 whole entry): as above

Cardiomyocyte [5] = assay: Inhibition of RyR2 R420W mutant in mouse Cardiomyocyte assessed as 0.5 Hz field-pulse stimulated suppression of abnormal Ca2+ waves at 30 to 100 nM incubated for 15 seconds by ROI analysis; details: dose 30-100 nM, time 15.0 sec
[6] = biological target: Ryanodine receptor 2 (Mus musculus) (UniProt E9Q401); assay: Inhibition of Full length wild type mouse RyR2 expressed in Flp-In-T-REx-293 cells assessed as caffeine-induced increase in Ca2+ release in endoplasmic reticulum at 0.0001 to 100 uM by flex-station 3 fluorometer analysis; details: dose 0.0001-100 µM
HEK293 [7] = assay: Inhibition of RyR1 R2163C mutant (unknown origin) expressed in HEK293 cells; details: Homo sapiens
[8] = biological target: Ryanodine receptor 2 (Mus musculus) (UniProt E9Q401); assay: Inhibition of Full length mouse RyR2 expressed in human Flp-In-T-REx-293 cells

SMILES	EC50 (Ryanodine receptor 2)	further results
O=C(Cn1nnc(-c2cccc(F)c2)n1)Nc1ccc(F)cc1	> 30 µM	
Nc1nc2ccc(OC(F)(F)F)cc2s1 [RILUZOLE]	9.9 µM	
CCN(C(=O)Cn1nnc(-c2ccccc2)n1)c1ccccc1	4.08 µM	inhibition (HEK293 [7]): inactive; inhibition [8]: Active
O=C(Cn1nnc(-c2cccc(F)c2)n1)N1CCc2ccccc21	> 30 µM	
O=C(Cn1nnc(-c2ccccc2)n1)Nc1ccccc1	> 30 µM	
COc1cccc(-c2nnn(CC(=O)Nc3ccc(F)cc3)n2)c1	> 30 µM	
COc1ccc(-c2nnn(CC(=O)N(C)c3ccccc3)n2)cc1	1.23 µM	
COc1cccc(-c2nnn(CC(=O)N(C)c3ccc(OC)c(OC)c3)n2)c1	> 30 µM	
COc1ccccc1-c1nnn(CC(=O)Nc2ccccc2)n1	> 30 µM	
O=C(Cn1nnc(-c2cccc(F)c2)n1)Nc1ccccc1	> 30 µM	
COc1cccc(-c2nnn(CC(=O)Nc3ccccc3)n2)c1	> 30 µM	
O=C(Cn1nnc(-c2cc(F)cc(F)c2)n1)Nc1ccc(F)cc1	> 30 µM	
COc1ccc(NC(=O)Cn2nnc(-c3ccccc3)n2)cc1	> 30 µM	
COc1cccc(N(C)C(=O)Cn2nnc(-c3ccccc3)n2)c1	25 µM	
COc1cccc(-c2nnn(CC(=O)N3CCc4ccccc43)n2)c1	> 30 µM	
COc1ccccc1N(C)C(=O)Cn1nnc(-c2ccccc2)n1	> 30 µM	
COc1ccc(-c2nnn(CC(=O)Nc3ccccc3)n2)cc1	> 30 µM	
CC(C)NCC(O)c1ccc(O)c(O)c1 (stereo not drawn)		inhibition (Cardiomyocyte [3]): inactive; inhibition (Cardiomyocyte [5]): inactive
CCCN(C(=O)Cn1nnc(-c2ccccc2)n1)c1ccccc1	29.4 µM	
COc1ccccc1-c1nnn(CC(=O)N(C)c2ccccc2)n1	2.92 µM	
COc1ccc(-c2nnn(CC(=O)N(C)c3ccc(F)cc3)n2)cc1OC	1.14 µM	

The next lines start with results.

EC50 (Ryanodine receptor 2)	SMILES	further results
0.18 µM	COc1cccc(-c2nnn(CC(=O)N(C)c3ccccc3)n2)c1	
0.013 µM	CN(C(=O)Cn1nnc(-c2cc(F)cc(F)c2)n1)c1ccc(F)cc1	inhibition (HEK293 [1]): inactive; inhibition [2]: inactive; inhibition (Cardiomyocyte [3]): Active; inhibition [4]: inactive; inhibition (Cardiomyocyte [5]): Active; inhibition [6]: Active
0.022 µM	CN(C(=O)Cn1nnc(-c2cc(F)cc(F)c2)n1)c1ccccc1	
1.1 µM	COC(=O)c1c(C)cc(O)cc1O [METHYL ORSELLINATE]	
0.234 µM	CN(C(=O)Cn1nnc(-c2ccccc2)n1)c1cccc(F)c1	
0.696 µM	CN(C(=O)Cn1nnc(-c2ccccc2)n1)c1ccccc1	
0.136 µM	COc1ccc(N(C)C(=O)Cn2nnc(-c3ccccc3)n2)cc1	
0.048 µM	COc1cccc(-c2nnn(CC(=O)N(C)c3ccc(OC)c(F)c3)n2)c1	
0.059 µM	COc1cc(-c2nnn(CC(=O)N(C)c3ccc(F)cc3)n2)ccc1F	
0.22 µM	CN(C(=O)Cn1nnc(-c2ccc(F)cc2)n1)c1ccccc1	
0.028 µM	COc1ccc(N(C)C(=O)Cn2nnc(-c3cccc(F)c3)n2)cc1	
0.46 µM	CN(C(=O)Cn1nnc(-c2ccccc2F)n1)c1ccccc1	
0.026 µM	COc1ccc(N(C)C(=O)Cn2nnc(-c3cccc(OC)c3)n2)cc1	
0.859 µM	CN(C(=O)Cn1nnc(-c2ccccc2)n1)c1ccccc1F	
0.023 µM	COc1cccc(-c2nnn(CC(=O)N(C)c3ccc(F)cc3)n2)c1	
0.05 µM	CN(C(=O)Cn1nnc(-c2ccccc2)n1)c1ccc(F)cc1	
0.096 µM	CN(C(=O)Cn1nnc(-c2cccc(F)c2)n1)c1ccccc1	
0.034 µM	CN(C(=O)Cn1nnc(-c2cccc(F)c2)n1)c1ccc(F)cc1	
